One compound from patent US12201608B2, “Methods for treating Parkinson's disease by administering resiniferatoxin” (Sorrento Therapeutics, Inc., priority 2018, dated 2025) can be followed below.

Series [1] in a line: Pilot tolerability study of intrathecal RTX infusion. In kind it is in vivo, C57Bl/6J mice. How it is done: The purpose of this study was to investigate the effects of single intrathecal administration of RTX on the AAV-A53T mouse model of PD-like pathology. Prior to this study start, a pilot tolerability study was conducted in which 16 male and 16 female C57Bl/6J mice were infused with RTX at two doses (either 0.04 μg or 0.125 μg) and followed up for 24 hours thereafter to observe any possible adverse effects of the treatment.
Of the 32 total mice used in the pilot study arm, in total 4 mice died during the 24 hour monitoring period after intrathecal infusion of RTX. Two females treated with 0.125 μg dose were found dead in cage within 4-24 hours after infusion due to unknown reason.

Series [2] is described as follows: Body weight monitoring in AAV-A53T / AAV-Null infused mice. It is filed as in vivo, C57Bl/6J male mice. The note with it: single intrathecal 0.04 μg or 0.125 μg, 7 or 14 days after AAV-A53T or AAV-Null infusion, 8 week study, two-way ANOVA. As to the method: (§1) For this study, a total of 110 male C57Bl/6J mice two months of age were infused with either AAV-A53T (90 mice) or AAV-Null (20 mice) into substantia nigra unilaterally to induce PD-like pathology or to serve as sham controls, respectively. Mice infused with AAV-Null (empty) vector (“sham-infused” mice) were used in order to control for the effect of the viral infusion. After 7 or 14 days of AAV-A53T mediated disease model induction, the mice were treated with RTX (0.04 μg or 0.125 μg) (5 μL volume, prepared from a 25 μg/ml RTX solution containing Polysorbate 80 at 0.03% w/v, dextrose at 0.05% w/v, Phosphate Buffer at 30 mM, and NaCl 0.54% w/v, pH 7.2, and diluted in saline as needed) by single intrathecal infusion at lumbar spinal cord area. One AAV-Null and AAV-A53T infused group per each time point were treated with vehicle instead of RTX.
(§2) The mice were then treated with RTX or vehicle by intrathecal infusion 7 or 14 days after AAV infusion. […]
Body weight of the animals was monitored two times per week. […] Dopamine and its metabolites were analyzed from ipsilateral and contralateral striata by high performance liquid chromatography (HPLC).
Body weight of the mice was measured twice-per week (on Mondays and Fridays) for the whole study duration.

Series [3] concerns AAV-A53T mouse model of Parkinson's Disease-like (PD) pathology. Nature of the series: Fine motor gait analysis accounting for left-right asymmetry (D7 data reevaluated). As to conditions: for maximum left-right difference of hip angle: vs AAV-A53T Vehicle. In kind it is in vivo, C57Bl/6J male mice. How it is done:
D7 fine motor gait analysis data from the study described above was reevaluated to determine how left-right asymmetry is manifested on kinematic parameters instead of assessing changes which occur bilaterally and that are captured in the “normal” overall gait score.
Typically, both the left and right sides of an animal are assessed for test parameters and the overall score and discriminant vector is based on the average of both the left and right-side values for a particular parameter. For example, the maximum hip angle is determined by the average of the left and right-side angle and it is similar in both AAV-Null Vehicle and AAV-A53T Vehicle groups. However, as shown in FIGS. 8A-8C when the left and right side measurements of the maximum hip angle were analyzed separately, the hip angle max of AAV-A53T Vehicle treated mice is smaller on the left side (FIG. 8A) than on the right side (FIG. 8B) when compared to AAV-Null mice.
Fine motor gait analysis was performed by creating a discriminant vector using the transformed data set, where left-right difference is used instead of the average of left and right.

Series [4] can be described thus: Adverse effects and mortality monitoring in the main AAV-A53T study. In kind it is in vivo, C57Bl/6J male mice. As to the method: as §1, §2
Animals were monitored daily by laboratory personnel. […]

[5] abbreviates: both RTX groups, vs AAV-A53T Vehicle D7.

Entries after “also recorded” stand apart in the source; their conditions may differ.

As to `C=C(C)[C@]12C[C@@H](C)[C@@]34O[C@](Cc5ccccc5)(O[C@@H]1[C@@H]3C=C(COC(=O)Cc1ccc(O)c(OC)c1)C[C@]1(O)C(=O)C(C)=C[C@@H]41)O2` [RTX, Resiniferatoxin], the “adverse effects in the rest of the mice” value in series [1] (0.04 μg or 0.125 μg, 24 hour follow-up) was “No significant adverse effects”. For the same compound, the “found dead in cage within 4-24 hours after infusion” value in series [1] (0.125 μg dose, unknown reason) is given as “Two females”. In series [1] (0.125 μg dosing group), the “died immediately after infusion” value is “one female and one male mouse”. Besides, in series [1] (32 mice total (16 male, 16 female), RTX 0.04 μg or 0.125 μg intrathecal), the “mice died during the 24 hour monitoring period after intrathecal infusion” value is 4 mice. Besides, the body weight entry in series [2] is “steady weight gain was observed similarly in vehicle and RTX treated groups; also recorded: No significant differences between the groups”; in series [2] (listed as resiniferatoxin), “No significant differences between the groups”. Besides, the “maximum left-right difference of hip angle” value in series [3] (AAV-A53T and 0.05 μg RTX (n=14)) is “reduction in the maximum difference”; in series [3] (AAV-A53T and 0.124 μg RTX (n=14)), “reduction in the maximum difference”. Also, the “hindlimb peak swing speed, left-right difference” value in series [3] (setting [5]) is reported as “reduced”. Further, the “hindlimb swing speed, left-right difference” value in series [3] (setting [5]) is “reduced”. Also, the “left-right gait difference Discriminant Vector Score” value in series [3] (both RTX groups, vs AAV-A53T vehicle, p<0.05 unpaired t-test) was “significantly lower”. Moreover, in series [3] (low and high RTX dose groups), the “diagonal interlimb coordination, left-right difference” value is reported as “less of a a diagonal interlimb coordination difference”. Also, in series [4] (6 mice out of 110 lost including vehicle-treated mice, attributed to surgical procedure and anesthesia), the “mortalities, distribution between groups” value was “evenly spread between the vehicle and both RTX low and high dose groups”. Further, the “adverse effects of intrathecal RTX administration” value in series [4] (low or high dose (0.04 μg or 0.125 μg), D7 or D14) was “No significant adverse effects”.
